Data taken from patent publication US9730940B2, “Purine inhibitors of human phosphatidylinositol 3-kinase delta” (priority 2012, dated 2017).

Biological target: PI3K-alpha (Homo sapiens (Human), UniProt P42336)
Test: HTRF PI3K biochemical assay, alpha isoform
Conditions: ratio PI3K-alpha IC50 value/PI3K-delta IC50 value

PI3K-alpha, sequence (P42336 whole entry, looked up, canonical isoform): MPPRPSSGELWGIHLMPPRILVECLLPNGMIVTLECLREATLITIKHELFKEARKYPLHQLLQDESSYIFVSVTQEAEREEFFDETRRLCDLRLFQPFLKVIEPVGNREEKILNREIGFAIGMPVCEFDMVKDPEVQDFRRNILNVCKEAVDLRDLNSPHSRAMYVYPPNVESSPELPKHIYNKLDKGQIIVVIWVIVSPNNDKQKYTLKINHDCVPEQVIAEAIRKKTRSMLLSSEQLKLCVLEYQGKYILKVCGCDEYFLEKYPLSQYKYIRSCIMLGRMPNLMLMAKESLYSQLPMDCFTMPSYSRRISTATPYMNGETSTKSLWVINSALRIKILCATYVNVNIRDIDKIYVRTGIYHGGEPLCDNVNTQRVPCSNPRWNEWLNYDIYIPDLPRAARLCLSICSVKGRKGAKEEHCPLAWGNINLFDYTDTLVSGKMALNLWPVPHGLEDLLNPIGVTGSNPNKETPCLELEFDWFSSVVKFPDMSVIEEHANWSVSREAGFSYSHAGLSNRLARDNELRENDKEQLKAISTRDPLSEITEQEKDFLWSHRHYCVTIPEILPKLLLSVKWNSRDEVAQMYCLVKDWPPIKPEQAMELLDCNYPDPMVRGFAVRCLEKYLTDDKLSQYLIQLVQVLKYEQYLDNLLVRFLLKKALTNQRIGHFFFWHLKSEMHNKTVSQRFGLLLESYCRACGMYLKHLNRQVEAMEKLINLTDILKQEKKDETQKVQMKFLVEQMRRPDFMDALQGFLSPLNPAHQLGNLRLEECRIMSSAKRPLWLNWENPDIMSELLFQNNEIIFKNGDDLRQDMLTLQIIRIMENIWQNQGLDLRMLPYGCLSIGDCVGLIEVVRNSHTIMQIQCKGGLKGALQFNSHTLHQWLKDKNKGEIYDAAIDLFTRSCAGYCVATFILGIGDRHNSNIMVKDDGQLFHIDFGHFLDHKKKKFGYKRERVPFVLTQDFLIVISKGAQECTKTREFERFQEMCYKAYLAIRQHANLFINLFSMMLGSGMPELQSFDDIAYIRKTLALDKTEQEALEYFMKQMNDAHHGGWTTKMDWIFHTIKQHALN
PI3K-alpha, sequence (P27986 whole entry partner, looked up, canonical isoform): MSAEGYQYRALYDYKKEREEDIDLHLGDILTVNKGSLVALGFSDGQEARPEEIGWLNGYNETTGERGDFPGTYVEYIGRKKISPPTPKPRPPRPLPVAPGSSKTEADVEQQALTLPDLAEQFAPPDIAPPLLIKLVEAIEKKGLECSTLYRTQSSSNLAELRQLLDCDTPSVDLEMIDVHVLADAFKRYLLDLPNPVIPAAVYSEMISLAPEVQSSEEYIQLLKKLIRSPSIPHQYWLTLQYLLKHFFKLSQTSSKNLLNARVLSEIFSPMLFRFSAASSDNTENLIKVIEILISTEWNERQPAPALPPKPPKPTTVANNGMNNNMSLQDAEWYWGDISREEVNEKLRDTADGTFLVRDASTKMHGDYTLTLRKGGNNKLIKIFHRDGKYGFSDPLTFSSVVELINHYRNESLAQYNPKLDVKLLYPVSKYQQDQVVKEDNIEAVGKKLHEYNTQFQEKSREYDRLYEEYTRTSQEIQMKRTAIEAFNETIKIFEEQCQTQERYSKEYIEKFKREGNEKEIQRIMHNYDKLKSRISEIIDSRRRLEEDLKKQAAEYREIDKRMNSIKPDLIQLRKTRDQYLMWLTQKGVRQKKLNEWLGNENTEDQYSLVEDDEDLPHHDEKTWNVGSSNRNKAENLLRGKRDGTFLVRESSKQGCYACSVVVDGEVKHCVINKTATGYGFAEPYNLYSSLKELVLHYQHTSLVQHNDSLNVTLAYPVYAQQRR

Compound	Relative Selectivity versus PI3Kalpha
CCn1ncc(-c2nc3c(O[C@H]4CCN(C(=O)C5CCOCC5)C4)ncnc3n2CC)c1C [Compound 3-61, (S)-(3-((9-ethyl-8-(1-ethyl-5-methyl-1H-pyrazol-4-yl)-9H-purin-6-yl)oxy)pyrrolidin-1-yl)(tetrahydro-2H-pyran-4-yl)methanone]	>10
CCn1ncc(-c2nc3c(O[C@H]4CCN(C(=O)c5cncn5C)C4)ncnc3n2C)c1C [Compound 2-73]	>10
CCn1ncc(-c2nc3c(O[C@H]4CCN(C(=O)c5noc(C(C)(C)O)n5)C4)ncnc3n2C)c1C [Compound 2-50, 2-(3-{[(3S)-3-{[8-(1-ethyl-5-methyl-1H-pyrazol-4-yl)-9-methyl-9H-purin-6-yl]oxy}pyrrolidin-1-yl]carbonyl}-1,2,4-oxadiazol-5-yl)propan-2-ol]	8
CCn1c(-c2cnc(OC)c(C)c2)nc2c(O[C@H]3CCN(C(=O)C4CC4)C3)ncnc21 [Compound 3-49, 6-{[(3S)-1-(cyclopropylcarbonyl)pyrrolidin-3-yl]oxy}-9-ethyl-8-(6-methoxy-5-methylpyridin-3-yl)-9H-purine]	>10
Cn1c(-c2cn[nH]c2)nc2c(O[C@H]3CCN(C(=O)OC(C)(C)C)C3)ncnc21 [Compound 1-19, tert-butyl (3S)-3-{[9-methyl-8-(1H-pyrazol-4-yl)-9H-purin-6-yl]oxy}pyrrolidine-1-carboxylate]	>10
CCn1ncc(-c2nc3c(O[C@H]4CCN(c5ncnc6ccsc56)C4)ncnc3n2C)c1C [Compound 7-4, 8-(1-ethyl-5-methyl-1H-pyrazol-4-yl)-9-methyl-6-{[(3S)-1-thieno[3,2-d]pyrimidin-4-ylpyrrolidin-3-yl]oxy}-9H-purine]	>10
CCC(=O)N1CC[C@H](Oc2ncnc3c2nc(C(F)F)n3CC)C1 [Compound 14-5, 8-(difluoromethyl)-9-ethyl-6-{[(3S)-1-propanoylpyrrolidin-3-yl]oxy}-9H-purine]	>10
CCn1ncc(-c2nc3c(O[C@H]4CCN(c5nccc(-c6ccco6)n5)C4)ncnc3n2C)c1C [Compound 7-10, 8-(1-ethyl-5-methyl-1H-pyrazol-4-yl)-6-{[(3S)-1-(4-furan-2-ylpyrimidin-2-yl)pyrrolidin-3-yl]oxy}-9-methyl-9H-purine]	>10
CCn1ncc(-c2nc3c(O[C@H]4CCN(c5ccccn5)C4)ncnc3n2C)c1C [Compound 7-7, 8-(1-ethyl-5-methyl-1H-pyrazol-4-yl)-9-methyl-6-{[(3S)-1-pyridin-2-ylpyrrolidin-3-yl]oxy}-9H-purine]	>10
CCn1ncc(-c2nc3c(O[C@H]4CCCN(C(=O)OC(C)(C)C)C4)ncnc3n2C)c1C [Compound 1-41, (S)-tert-butyl 3-((8-(1-ethyl-5-methyl-1H-pyrazol-4-yl)-9-methyl-9H-purin-6-yl)oxy)piperidine-1-carboxylate]	>10
CCn1c(-c2cnc(C)nc2)nc2c(O[C@H]3CCN(c4cccc(F)c4)C3)ncnc21 [Compound 7-21, 9-ethyl-6-{[(3S)-1-(3-fluorophenyl)pyrrolidin-3-yl]oxy}-8-(2-methylpyrimidin-5-yl)-9H-purine]	>10
CCn1c(-c2cnc(N)c(C(F)(F)F)c2)nc2c(O[C@H]3CCN(C(=O)C4CC4)C3)ncnc21 [Compound 3-44, 5-(6-{[(3S)-1-(cyclopropylcarbonyl)pyrrolidin-3-yl]oxy}-9-ethyl-9H-purin-8-yl)-3-(trifluoromethyl)pyridin-2-amine]	>10
CCC(=O)N1CC[C@H](Oc2ncnc3c2nc(-c2cc(O)cc(F)c2)n3C)C1 [Compound 3-9, 3-fluoro-5-(9-methyl-6-{[(3S)-1-propanoylpyrrolidin-3-yl]oxy}-9H-purin-8-yl)phenol]	>10
